This is an account of results in patent US20250387388A1, “COMPOUND AS TRK INHIBITOR AND/OR RET INHIBITOR AND USE THEREOF” (Medinno Pharmaceutical Technology (Zhuhai) Co., Ltd., priority 2022, published 2025).

Where two headings read alike, the source gives them in different places.

Broadly, the IC50 is the midpoint of a concentration-inhibition curve.

Experiment [1] relates to imiquimod-induced psoriasis model. As to the kind of experiment: Imiquimod-induced psoriasis model in mice. The conditions noted are these: for Clinical Score (mean ± standard error) / Skin Thickness Score (mean ± standard error): Calcitriol 75 mg/mice topical QD.
The target in a further experiment is TRKB (Homo sapiens (Human), UniProt Q16620). In words: Inhibitory activity on TRKB (ADP-Glo Kinase Assay). (In ADP-Glo the light output rises with the ADP produced.)
A further experiment concerns the target TRKA (Homo sapiens (Human), UniProt P04629). As to the kind of experiment: Inhibitory activity on TRKA (ADP-Glo Kinase Assay).
In the next experiment the target is TRKC (Homo sapiens (Human), UniProt Q16288). In words: Inhibitory activity on TRKC (ADP-Glo Kinase Assay).
In another experiment the test system is acne model in rabbits. As to the kind of experiment: Acne model in rabbits (coal tar + Propionibacterium acnes). It counts as in vivo, New Zealand white rabbits. The settings on record: 1% Clindamycin gel 0.5 g/kg once per day. The method, then:
Modeling: Rabbits were acclimated for 7 days. On the right inner ear canal exit of the rabbits, a 2 cm×2 cm area was treated with 2% coal tar solution once a day, 0.5-1 mL each time, for 26 consecutive days. […] On the 8th day, Propionibacterium acnes was injected intradermally at 3-4 sites on the rabbit ears, 50 μl per rabbit, injected every other day for a total of 5 times. Treatment was started randomly on the 9th day after the last injection.
Rabbits were treated according to their groups. The blank group received no treatment. […] The model group received an equal amount of vehicle treatment, with the same application method and duration as the test drug groups.
Twenty-four hours after the last administration, a 2.8 cm punch was used to prepare ear samples at the application site, and their weight was measured. The ears from the modeling site were fixed with 4% paraformaldehyde, and consecutive sections (3 slices) were taken from the same location for HE staining and histopathological analysis. At the same time, the area of 3 hair follicles and the diameter of 3 sebaceous glands were measured to calculate the average values. Blood was drawn from the heart and centrifuged to obtain serum, and the levels of interleukin-1α (IL-1α), interleukin-6 (IL-6), and dihydrotestosterone (DHT) in serum were determined according to the ELISA kit instructions.
Tissue samples from animal ears were excised, fixed in 4% paraformaldehyde, dehydrated, embedded in paraffin, and sectioned and HE stained for observation of histopathological morphology changes. The tissue samples were fixed in 4% paraformaldehyde at normal temperature and the taken ears tissue was rinsed with running water for several hours, dehydrated through a series of ethanol solutions (70%, 80%, 90%), and then treated with a mixture of pure alcohol and xylene for 15 minutes, followed by xylene I for 15 minutes and xylene II for 15 minutes (until transparent). The tissue was then placed in a mixture of xylene and paraffin at a volume ratio of 1:1 for 15 minutes, followed by immersion with paraffin I and paraffin II each for 50-60 minutes. The tissue was embedded in paraffin and sectioned, and the sections were baked, dewaxed and hydrated in distilled water. The resulting sections were then stained in hematoxylin solution for 3 minutes, differentiated in a hydrochloric acid alcohol solution for 15 seconds, slightly washed, blued in a return blue solution for 15 seconds, rinsed with running water, stained with eosin for 3 minutes, rinsed with running water, dehydrated, cleared, and mounted for microscopic examination.
A double-antibody one-step sandwich Enzyme-linked Immunosorbent Assay (ELISA) ket was used. A capture antibody for the mouse target indicators was pre-coated onto microplate wells, to which samples, standards, and HRP-labeled detection antibodies were added sequentially, followed by incubation and thorough washing. TMB substrate was added for color development, which turned into blue in the presence of peroxidase and then into yellow after acidification. The depth of color was positively correlated with the concentration of the target in the samples. The absorbance (OD450 value) was measured at a wavelength of 450 nm using the microplate reader, and the sample concentration was calculated.

The test system of experiment [2] is ovalbumin-induced asthma model in mice. As to the kind of experiment: Ovalbumin-induced asthma model in mice. It counts as in vivo, Balb/c mice. The conditions noted are these: vs. vehicle (model) group; nasal administration BID 5 days: MDI-1228 3 mg/kg, MDI-1288 3 mg/kg, MDI-1233 1, 3, 10 mg/kg; dexamethasone 1 mg/kg gavage QD. On the procedure: After 7 days of acclimatization, animals were randomly grouped based on their body weight. The experiment was divided into 8 groups, with 8 mice in each group, as detailed in the table below.
• Preparation of Immunogen: Weigh an appropriate amount of OVA, to which an appropriate amount of PBS was added, to achieve a final concentration of 0.1 mg/ml. Then, an equal volume of aluminum adjuvant was added, and the resulting mixture was mixed well, and stored at 4° C., which was prepared before use. • Preparation of Sensitizer (5% OVA): Weigh an appropriate amount of OVA, to which an appropriate amount of PBS was added, to achieve a final concentration of 5%. The resulting mixture was mixed well, and store it at 4° C. for later use, which was prepared before use. • Preparation of Vehicle: Add 200 μl of Tween 80 to 100 ml of saline, and mix it well. […] Mix it well, and store it at 4° C. for later use. […] Mix it well, and store it at 4° C. for later use. […] Mix it well, and store it at 4° C. for later use. The solution was prepared once every three days.
• Immunization: On days 0, 7, 14, and 21, 200 μl of PBS was injected intraperitoneally for the first group, and 200 μl of (10 μg) OVA/aluminum adjuvant emulsion was injected intraperitoneally for groups 2-8. • Sensitization: From days 28 to 32, the first group of animals was exposed to nebulized PBS in a nebulization box for 20 minutes, and the groups 2-8 were exposed to nebulized 5% OVA in a nebulization box for 20 minutes. And then, they were removed. The sensitization was conducted at 12:30 PM daily. • Administration: The medicine was administrated twice a day at 9 AM and 5 PM via nasal drops. Dexamethasone (Dex) was administered by gavage once a day at 9 AM.
Serum IgE: Blood was collected from the orbits of animals after carbon dioxide euthanasia, and plasma was separated and stored at −40 degrees for plasma IgE detection.
Bronchoalveolar Lavage Fluid (BALF) Cell Count: An appropriate amount of foetal bovine serum was weighted and dissolved in PBS to a final concentration of 1%. After orbital blood collection, the trachea was exposed, and a 1 ml syringe needle was replaced with a mouse gavage needle. 0.8 ml of the lavage fluid was aspirated from the syringe and the lungs were lavaged three times. The lavage fluids were collected, and centrifuged at 1000 rpm for 10 minutes, and the supernatant was collected and stored at −40 degrees Celsius. Cells were resuspended with 1 ml of PBS and counted. 100 ul of centrifuged smear was taken and stained with Diff quick and the number of eosinophils, basophils, lymphocytes and macrophages were recorded.
Bronchoalveolar Lavage Fluid IL-5: Bronchoalveolar lavage fluid was collected to detect IL-5.
Pathological scoring criteria were: • A) 0 points: No lymphocyte infiltration; • B) 1 point: Trace lymphocyte infiltration; • C) 2 points: Mild lymphocyte infiltration; • D) 3 points: Moderate lymphocyte infiltration; • E) 4 points: Severe lymphocyte infiltration; • After scoring, the results were calculated and analyzed.

Sequence of TRKB (Q16620 32-822): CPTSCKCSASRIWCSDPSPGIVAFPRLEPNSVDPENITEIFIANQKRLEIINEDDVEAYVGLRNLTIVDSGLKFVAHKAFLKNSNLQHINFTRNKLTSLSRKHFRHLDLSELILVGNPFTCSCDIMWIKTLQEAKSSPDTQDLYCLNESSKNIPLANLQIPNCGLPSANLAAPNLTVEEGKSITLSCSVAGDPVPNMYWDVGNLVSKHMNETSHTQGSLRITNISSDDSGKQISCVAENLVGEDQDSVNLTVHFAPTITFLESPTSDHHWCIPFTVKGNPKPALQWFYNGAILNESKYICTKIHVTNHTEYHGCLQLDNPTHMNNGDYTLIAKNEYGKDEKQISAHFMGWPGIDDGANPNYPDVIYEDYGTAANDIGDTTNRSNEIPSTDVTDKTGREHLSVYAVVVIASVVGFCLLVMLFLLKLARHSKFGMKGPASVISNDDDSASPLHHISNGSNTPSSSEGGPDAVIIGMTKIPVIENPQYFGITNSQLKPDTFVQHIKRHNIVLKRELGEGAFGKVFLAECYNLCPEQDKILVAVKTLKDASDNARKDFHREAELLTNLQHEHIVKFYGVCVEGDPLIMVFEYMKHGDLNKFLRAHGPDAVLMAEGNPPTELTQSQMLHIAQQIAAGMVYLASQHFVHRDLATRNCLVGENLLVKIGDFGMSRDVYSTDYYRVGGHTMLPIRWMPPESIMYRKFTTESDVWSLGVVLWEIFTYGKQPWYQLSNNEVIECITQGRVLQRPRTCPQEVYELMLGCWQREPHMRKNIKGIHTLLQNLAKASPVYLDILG
Sequence of TRKA (P04629 33-796 limits assumed): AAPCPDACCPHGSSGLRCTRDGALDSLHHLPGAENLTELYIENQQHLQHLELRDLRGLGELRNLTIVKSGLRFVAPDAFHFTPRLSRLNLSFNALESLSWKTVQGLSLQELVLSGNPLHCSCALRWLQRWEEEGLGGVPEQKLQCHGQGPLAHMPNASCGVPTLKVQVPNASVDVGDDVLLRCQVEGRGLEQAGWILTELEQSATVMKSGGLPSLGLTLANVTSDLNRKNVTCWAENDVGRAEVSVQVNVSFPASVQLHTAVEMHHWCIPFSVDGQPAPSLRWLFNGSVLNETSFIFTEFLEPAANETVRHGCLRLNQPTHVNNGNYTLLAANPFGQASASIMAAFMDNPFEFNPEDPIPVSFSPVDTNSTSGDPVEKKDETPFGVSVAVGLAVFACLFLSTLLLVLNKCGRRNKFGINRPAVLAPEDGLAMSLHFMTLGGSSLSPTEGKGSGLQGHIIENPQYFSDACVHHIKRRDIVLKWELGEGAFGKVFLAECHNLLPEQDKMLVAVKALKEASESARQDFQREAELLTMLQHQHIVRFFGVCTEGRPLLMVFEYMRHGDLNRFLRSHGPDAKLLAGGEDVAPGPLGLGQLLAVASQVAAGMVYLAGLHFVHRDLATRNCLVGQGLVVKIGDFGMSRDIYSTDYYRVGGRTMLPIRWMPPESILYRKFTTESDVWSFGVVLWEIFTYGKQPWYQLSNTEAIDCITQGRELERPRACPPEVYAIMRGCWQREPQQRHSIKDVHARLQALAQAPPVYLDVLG
Sequence of TRKC (Q16288 32-839): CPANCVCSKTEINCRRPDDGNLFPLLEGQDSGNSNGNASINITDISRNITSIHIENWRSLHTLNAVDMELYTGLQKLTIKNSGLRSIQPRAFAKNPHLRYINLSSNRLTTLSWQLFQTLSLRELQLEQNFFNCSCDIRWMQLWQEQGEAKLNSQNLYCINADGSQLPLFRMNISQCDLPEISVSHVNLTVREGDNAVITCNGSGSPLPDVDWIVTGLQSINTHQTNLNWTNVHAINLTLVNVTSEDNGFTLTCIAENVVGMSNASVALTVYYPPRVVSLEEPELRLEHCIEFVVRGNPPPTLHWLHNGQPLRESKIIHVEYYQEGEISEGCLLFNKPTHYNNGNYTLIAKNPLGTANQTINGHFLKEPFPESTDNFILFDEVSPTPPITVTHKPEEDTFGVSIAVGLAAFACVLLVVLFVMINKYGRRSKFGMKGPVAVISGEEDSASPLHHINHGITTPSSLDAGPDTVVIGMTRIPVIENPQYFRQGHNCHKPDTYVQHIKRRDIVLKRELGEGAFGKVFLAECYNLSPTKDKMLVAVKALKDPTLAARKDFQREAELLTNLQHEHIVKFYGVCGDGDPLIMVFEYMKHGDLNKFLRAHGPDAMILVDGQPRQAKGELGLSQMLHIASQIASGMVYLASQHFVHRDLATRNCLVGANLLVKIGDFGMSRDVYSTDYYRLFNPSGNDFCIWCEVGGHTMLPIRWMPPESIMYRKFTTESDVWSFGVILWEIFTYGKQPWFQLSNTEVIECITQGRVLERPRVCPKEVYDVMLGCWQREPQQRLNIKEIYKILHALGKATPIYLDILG

On to `C=C1/C(=C\C=C2/CCC[C@]3(C)[C@@H]([C@H](C)CCCC(C)(C)O)CC[C@@H]23)C[C@@H](O)C[C@@H]1O` [Calcitriol], for which the “Clinical Score (mean ± standard error)” value in experiment [1] (Day 0) is on record as 0.0 ± 0.00; in experiment [1] (Day 1) it was 0.2 ± 0.13; in experiment [1] (Day 2), 1.2 ± 0.13; in experiment [1] (Day 3) it was 3.1 ± 0.28; in experiment [1] (Day 4), 4.3 ± 0.26; in experiment [1] (Day 5), 2.9 ± 0.18. In addition, the “Clinical Score (mean ± standard error)” value stood at 2.5 ± 0.17 in experiment [1] (Day 6) and 2.0 ± 0.00 in experiment [1] (Day 7). The “Skin Thickness Score (mean ± standard error)” value in experiment [1] (Day 0) was found to be 0.0 ± 0.00; in experiment [1] (Day 1), 0.0 ± 0.00; in experiment [1] (Day 2), 0.0 ± 0.00; in experiment [1] (Day 3), 0.7 ± 0.15; in experiment [1] (Day 4), 1.2 ± 0.20; in experiment [1] (Day 5), 0.8 ± 0.20. Besides, the “Skin Thickness Score (mean ± standard error)” value stood at 0.5 ± 0.17 in experiment [1] (Day 6) and 0.0 ± 0.00 in experiment [1] (Day 7). Also, the “Inhibition percentage of skin thickness score AUC relative to vehicle control group” value in experiment [1] (calcitriol 75 mg/mice QD) turned out to be 64.2%. Further, in experiment [1] (calcitriol 75 mg/mice QD), the Skin histopathology result is reported as “a trend of mitigation”.
Regarding `CCc1cc(O)c(F)cc1-c1ccc2c(-c3nc4c([nH]3)CN(C(=O)c3cnc(N5CCOCC5)cn3)C4)n[nH]c2c1` [MDI-201, (2-(6-(2-ethyl-5-fluoro-4-hydroxyphenyl)-1H-indazol-3-yl)-4,6-dihydropyrrolo[3,4-d]imidazol-5(1H)-yl)(5-morpholinepyrazin-2-yl)ketone], the concentration for half-maximal inhibition (IC50) amounted to 6.14 nM on TRKB, 5.76 nM at TRKA and 2.2 nM against TRKC.
On to `CCc1cc(O)c(F)cc1-c1ccc2c(-c3nc4c([nH]3)CN(S(=O)(=O)C3CC3)C4)n[nH]c2c1` [MDI-218, 4-(3-(5-(cyclopropanesulfonyl)-1,4,5,6-tetrahydropyrrolo[3,4-d]imidazol-2-yl)-1H-indazol-6-yl)-5-ethyl-2-fluorophenol], for which the 50% inhibitory concentration (IC50) on TRKB (read-out: TRKB IC50, ATP 5 μM) worked out at 32.3 nM; on TRKA (read-out: TRKA IC50, ATP 5 μM) it was 9.97 nM; on TRKC (read-out: TRKC IC50, ATP 5 μM) it was 5.1 nM.
`CCc1cc(O)c(F)cc1-c1ccc2c(-c3nc4c([nH]3)CN(C(=O)N3CCCC3)C4)n[nH]c2c1` [MDI-231, (2-(6-(2-ethyl-5-fluoro-4-hydroxyphenyl)-1H-indazol-3-yl)-4,6-dihydropyrrolo[3,4-d]imidazol-5-(1H)-yl)(pyrrolidin-1-yl)ketone]: the IC50 came to 5.86 nM at TRKB, 2.82 nM against TRKA and 1.49 nM on TRKC.
On the same counts, the results for `CCc1cc(O)c(F)cc1-c1ccc2c(-c3nc4c([nH]3)CN(C(=O)N3CCCCC3)C4)n[nH]c2c1` [MDI-233] are 30.4 nM, 9.01 nM and 6.32 nM.
In the case of `CCc1cc(O)c(F)cc1-c1ccc2c(-c3nc4c([nH]3)CN(C(=O)N3CCOCC3)C4)n[nH]c2c1` [MDI-234, (2-(6-(2-ethyl-5-fluoro-4-hydroxyphenyl)-1H-indazol-3-yl)-4,6-dihydropyrrolo[3,4-d]imidazol-5-(1H)-yl)(morpholino)ketone], the IC50 is 1.27 nM against TRKB, 1.07 nM at TRKA and 0.65 nM against TRKC.
On the same counts, the results for `CCc1cc(O)c(F)cc1-c1ccc2c(-c3nc4c([nH]3)CN(C(=O)N3CCN(CC)CC3)C4)n[nH]c2c1` [MDI-236, (2-(6-(2-ethyl-5-fluoro-4-hydroxyphenyl)-1H-indazol-3-yl)-4,6-dihydropyrrolo[3,4-d]imidazol-5-(1H)-yl)(4-ethylpiperazin-1-yl)ketone] are 1.06 nM, 0.23 nM and 0.2 nM.
As to `CCc1cc(O)c(F)cc1-c1ccc2c(-c3nc4c([nH]3)CN(C(=O)NCCO)C4)n[nH]c2c1` [MDI-248, 2-(6-(2-ethyl-5-fluoro-4-hydroxyphenyl)-1H-indazol-3-yl)-N-(2-hydroxylethyl)-4,6-dihydropyrrolo[3,4-d]imidazol-5(1H)-carboxamide], the half-inhibitory concentration (IC50) on TRKB (read-out: TRKB IC50, ATP 5 μM) was determined as 3.58 nM; on TRKA (read-out: TRKA IC50, ATP 5 μM) it was 12 nM; on TRKC (read-out: TRKC IC50, ATP 5 μM) it was 3.77 nM.
As for `CCc1cc(O)c(F)cc1-c1ccc2c(-c3nc4c([nH]3)CN(C(=O)N(C)C)C4)n[nH]c2c1` [MDI-257, 2-(6-(2-ethyl-5-fluoro-4-hydroxyphenyl)-1H-indazol-3-yl)-N,N-dimethyl-4,6-dihydropyrrolo[3,4-d]imidazol-5(1H)-carboxamide], the half-maximal inhibitory concentration (IC50) on TRKB (read-out: TRKB IC50, ATP 5 μM) was found to be 2.93 nM; on TRKC (read-out: TRKC IC50, ATP 5 μM), 0.72 nM.
Regarding `CCC[C@@H]1C[C@@H](C(=O)N[C@@H]([C@H]2O[C@H](SC)[C@H](O)[C@@H](O)[C@H]2O)[C@H](C)Cl)N(C)C1` [clindamycin, reference compound], the Hair follicle area entry with acne model in rabbits is “not improved”. The Rabbit ear weight result with acne model in rabbits (2 weeks) was “did not reduce ear weight”.
With `C[C@@H]1C[C@H]2[C@@H]3CCC4=CC(=O)C=C[C@]4(C)[C@@]3(F)[C@@H](O)C[C@]2(C)[C@@]1(O)C(=O)CO` [dexamethasone, reference compound], in experiment [2], the “Bronchoalveolar lavage fluid IL-5 expression level” value is recorded as “significantly reduced the expression of IL-5”, the “Inflammatory cell count in bronchoalveolar lavage fluid” value is on record as “significantly reduced the Inflammatory Cell Count”, the “Lung tissue inflammatory cell infiltration (HE pathology)” value is “significantly reduced the lung tissue inflammatory cell infiltration” and the “Serum IgE expression level” value was “significantly reduced the expression of IgE”.
